Data published in patent US20060063785A1, “Substituted pyrazolo[1,5-a] pyrimidines and process for making same” (priority 2004, published 2006).

How the values were obtained:
[1] = test system: 80S14 (p21-deficient) cells; assay: Determination of selectivity of compounds for p21-/- cells: IC50 in 80S14 cells (SRB); assay type: cell-based, human; conditions: Homo sapiens, 120 h; 80S14 (p21-deficient) cells, 5 days at 37° C., SRB; read-out: IC50 for 80S14

melting point [°C]	Compound	IC50 [1] [µM]
84 to 86	CCC(C)C(C)CNc1cccc(-c2ccnc3c(C(=O)c4cccs4)cnn23)c1 (stereo not drawn) [Example 318]	–
118 to 120	C/C=C(\C)CNc1cccc(-c2ccnc3c(C(=O)c4cccs4)cnn23)c1 [Example 319]	–
72 to 75	CC/C=C/CNc1cccc(-c2ccnc3c(C(=O)c4cccs4)cnn23)c1 [Example 320]	–
104 to 106	C=C(C)CNc1cccc(-c2ccnc3c(C(=O)c4cccs4)cnn23)c1 [Example 322]	–
79 to 82	C=C(CC)CNc1cccc(-c2ccnc3c(C(=O)c4cccs4)cnn23)c1 [Example 323]	–
215 to 216	O=C(O)c1ccccc1C(=O)Nc1cccc(-c2ccnc3c(C(=O)c4cccs4)cnn23)c1 [Example 331, 2-[({3-[3-(Thien-2-ylcarbonyl)pyrazolo[1,5-a]pyrimidin-7-yl]phenyl}amino)carbonyl]benzoic acid]	–
173 to 175	CC(C)CC(=O)Nc1cccc(-c2ccnc3c(-c4cccc(N)c4)cnn23)c1 [Example 352, N-{3-[3-(3-Aminophenyl)pyrazolo[1,5-a]pyrimidin-7-yl]phenyl}-3-methylbutanamide]	–

Compound	melting point [°C]	IC50 [1] [µM]
O=C(Nc1cccc(-c2ccnc3c(C(=O)c4cccs4)cnn23)c1)OCC(Cl)(Cl)Cl [Example 12, 2,2,2-trichloroethyl 3-[3-(thien-2-ylcarbonyl)pyrazolo[1,5-a]pyrimidin-7-yl]phenylcarbamate]	197 to 200	< 1
